From ChEMBL document CHEMBL5356976, “Discovery of an adjuvant that resensitizes polymyxin B-resistant bacteria” (2024) come the findings set out here.

The structures appear in SMILES notation. ≈ marks a conversion by molar mass, not a printed value. Calls of active or inactive are those of the source. Bridge positions count the residues as written; N and C are the ends. Square brackets hold non-standard residues; d marks the D form. Peptide text beside a SMILES is read from it. * marks the point of attachment. X1 = CC[C@H](C)CCCCC(=O)*; Dab = NCC[C@H](N)C(=O)O

Experiment [1] relates to Escherichia coli. The experiment in a line: Synergistic antibacterial activity against polymyxin B resistant Escherichia coli MG1655 assessed as fractional inhibitory concentration by checkerboard assay. In kind it is functional.
The subject of experiment [2] is Escherichia coli. Briefly: Synergistic antibacterial activity against polymyxin B resistant Escherichia coli MG1655 assessed as fold reduction in polymyxin B MIC by checkerboard assay. In kind it is functional.
Experiment [3] deals with Staphylococcus aureus. The experiment in a line: Synergistic antibacterial activity against Staphylococcus aureus ATCC 29213 assessed as fold reduction in melittin activity at 75 mg/l by checkerboard assay. The format is functional.
The test system of experiment [4] is Cell membrane. Briefly: Induction of membrane permeabilization in polymyxin-B resistant Escherichia coli MG1655 assessed as fluorescence increase incubated for 10 mins in presence of polymyxin B by DiSC3(5) dye based fluorescence spectrometer analysis. In kind it is subcellular.
Experiment [5] relates to Cell membrane. Briefly: Induction of membrane permeabilization in polymyxin-B resistant Escherichia coli MG1655 assessed as increase in fluorescence by DiSC3(5) staining based fluorescence spectrometer analysis (reference value: 8.5). In kind it is subcellular.
The test system of experiment [6] is Escherichia coli. Briefly: Additive antibacterial activity against Escherichia coli MG1655 assessed as fold reduction in polymyxin B MIC at 100 mg/L by checkerboard assay. The format is functional.
Experiment [7] deals with Cell membrane. Briefly: Induction of membrane permeabilization in polymyxin-B resistant Escherichia coli MG1655 assessed as increase in fluorescence after 4 mins by DiSC3(5) staining based fluorescence spectrometer analysis (reference value: 8.5). In kind it is subcellular.
Experiment [8] relates to Cell membrane. The experiment in a line: Induction of membrane permeabilization in polymyxin-B resistant Escherichia coli MG1655 assessed as fluorescence increase incubated for 10 mins in presence of triton X-100 by DiSC3(5) dye based fluorescence spectrometer analysis. In kind it is subcellular.
The subject of experiment [9] is Escherichia coli. The experiment in a line: Antibacterial activity against polymyxin-B resistant Escherichia coli MG1655. In kind it is functional.
Experiment [10] relates to Escherichia coli. The experiment in a line: Antibacterial activity against Escherichia coli MG1655 in presence of 50 mg/l perforone. The format is functional.
The test system of experiment [11] is Escherichia coli. The experiment in a line: Antibacterial activity against Escherichia coli MG1655 in presence of 6.25 mg/l perforone. The format is functional.
For experiment [12], the system named is Escherichia coli. Briefly: Antibacterial activity against Escherichia coli MG1655. In kind it is functional.
Experiment [13] has as its system Escherichia coli. Briefly: Antibacterial activity against resistant Escherichia coli MG1655. In kind it is functional.

As to `COc1c2c(nc3occc13)[C@@]1(OC)CCC(C)(C)O[C@@]1(O)CC2`, the FIC in [1] amounted to 0.19. Besides, the “fold change (FC)” value in [2] stood at 16; in experiment [3], 2; in experiment [6], 2. Besides, the outcome in experiment [4] and in [8] was inactive. In addition, the Flu intensity in experiment [5] amounted to 29.2 a.u; in experiment [7], 19.7 a.u.

Consider `CC(C)C[C@@H]1NC(=O)[C@@H](Cc2ccccc2)NC(=O)[C@H](CCN)NC(=O)[C@@H](NC(=O)[C@H](CCN)NC(=O)[C@@H](NC(=O)[C@@H](N)CCN)[C@@H](C)O)CCNC(=O)[C@H]([C@@H](C)O)NC(=O)[C@H](CCN)NC(=O)[C@H](CCN)NC1=O` (H-[Dab]T[Dab][Dab][Dab][dF]L[Dab][Dab]T; lactam 4-C), for which, in experiment [9], the result was Active.

Take `CC[C@H](C)CCCCC(=O)N[C@@H](CCN)C(=O)N[C@H](C(=O)N[C@@H](CCN)C(=O)N[C@H]1CCNC(=O)[C@H]([C@@H](C)O)NC(=O)[C@H](CCN)NC(=O)[C@H](CCN)NC(=O)[C@H](CC(C)C)NC(=O)[C@@H](Cc2ccccc2)NC(=O)[C@H](CCN)NC1=O)[C@@H](C)O` (X1-[Dab]T[Dab][Dab][Dab][dF]L[Dab][Dab]T; lactam 4-C): the minimum inhibitory concentration (MIC) came to 16 µg/mL in experiment [10]; 2 µg/mL in experiment [11]; 0.5 µg/mL (≈ 0.415 µM) in [12]; 256 µg/mL (≈ 213 µM) in experiment [9]; 256 µg/mL (≈ 213 µM) in experiment [13].

As for `CC[C@H]1OC(=O)[C@H](C)[C@@H](O[C@H]2C[C@@](C)(OC)[C@@H](O)[C@H](C)O2)[C@H](C)[C@@H](O[C@@H]2O[C@H](C)C[C@H](N(C)C)[C@H]2O)[C@](C)(O)C[C@@H](C)CN(C)[C@H](C)[C@@H](O)[C@]1(C)O` [AZITHROMYCIN], the results for the minimum inhibitory concentration (MIC) in experiment [12] and in experiment [13] were 4 µg/mL (≈ 5.34 µM) and 128 µg/mL (≈ 171 µM), respectively.

For the compound `C[C@H]1c2cccc(O)c2C(=O)C2=C(O)[C@]3(O)C(=O)C(C(N)=O)=C(O)[C@@H](N(C)C)[C@@H]3[C@@H](O)[C@@H]21.O` [DOXYCYCLINE], the minimal inhibitory concentration (MIC) is 0.25 µg/mL in [12] and 60 µg/mL in experiment [13].

Usually MIC stands for the smallest concentration in the dilution series that meets the test's criterion for growth inhibition.
